US20190365743A1, “HEDGEHOG PATHWAY INHIBITION FOR TREATMENT OF HIGH-RISK BASAL CELL CARCINOMA OR HIGH-RISK BASAL CELL CARCINOMA NEVUS SYNDROME” (HEDGEPATH PHARMACEUTICALS, INC., priority 2018, published 2019)

Test: plasma trough level of itraconazole required for clinical benefit, and side effects of high doses, in humans with cancer
Type: in vivo
Protocol: In particular, the minimum plasma trough level after 4 weeks of therapy required to have a clinically significant effect was at least 1000 ng/ml. […] These side effects associated with these high doses of itraconazole can be effectively managed by giving a selective mineralocorticoid antagonist, such as eplerenone. Accordingly, in some embodiments, the method further comprises administering eplerenone or other mineralocorticoid inhibitor.

Q: Which “side-effects peculiar to high doses” value (high doses giving plasma trough of at least 1000 ng/ml) does the source give for `CCC(C)n1ncn(-c2ccc(N3CCN(c4ccc(OCC5COC(Cn6cncn6)(c6ccc(Cl)cc6Cl)O5)cc4)CC3)cc2)c1=O` (centres unmarked) [itraconazole] here?
A: The value was “hypertension, peripheral edema, and hypokalemia”.

Q: And the concentration at 4 weeks (human, plasma, after 4 weeks of therapy, humans with cancer, read-out: minimum plasma trough level required to have a clinically significant effect)?
A: Its concentration at 4 weeks is at least 1000 ng/mL.
